Experimental data published in PubChem BioAssay (NCI).
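In this assay, cells in 96-well plates receive the compound at five concentrations for 48 hours. Endpoints are linearly interpolated between the surrounding concentrations. At the GI50, growth is halved. Definition used: TGI = concentration required for complete inhibition of growth.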

Key:
Assay in all cases: NCI-60 cell line screen, 48 h
HOP-92 NSCLC = system: HOP-92 NSCLC
KM12 colon = system: KM12 colon
TK-10 renal = system: TK-10 renal
HT29 colon = system: HT29 colon
SK-MEL-2 melanoma = system: SK-MEL-2 melanoma
HL-60(TB) leukemia = system: HL-60(TB) leukemia
HS 578T breast = system: HS 578T breast
SK-MEL-5 melanoma = system: SK-MEL-5 melanoma
BT-549 breast = system: BT-549 breast
K-562 leukemia = system: K-562 leukemia
SF-539 CNS = system: SF-539 CNS
UACC-257 melanoma = system: UACC-257 melanoma
RXF 393 renal = system: RXF 393 renal
HCT-15 colon = system: HCT-15 colon
NCI-H460 lung = system: NCI-H460 lung
SF-295 CNS = system: SF-295 CNS
NCI-H23 lung = system: NCI-H23 lung
MDA-MB-231 breast = system: MDA-MB-231 breast
T-47D breast = system: T-47D breast
SNB-19 CNS = system: SNB-19 CNS
SNB-75 CNS = system: SNB-75 CNS
786-0 renal = system: 786-0 renal
CCRF-CEM leukemia = system: CCRF-CEM leukemia
IGROV1 ovarian = system: IGROV1 ovarian
CAKI-1 renal = system: CAKI-1 renal
MCF7 breast = system: MCF7 breast
A498 renal = system: A498 renal
M14 melanoma = system: M14 melanoma
ACHN renal = system: ACHN renal
LOX IMVI melanoma = system: LOX IMVI melanoma
MDA-MB-435 = system: MDA-MB-435
COLO 205 colon = system: COLO 205 colon
HCC-2998 colon = system: HCC-2998 colon
A549 NSCLC = system: A549 NSCLC
SR leukemia = system: SR leukemia
MALME-3M melanoma = system: MALME-3M melanoma
MOLT-4 leukemia = system: MOLT-4 leukemia
SW-620 colon = system: SW-620 colon
RPMI-8226 leukemia = system: RPMI-8226 leukemia
HOP-62 NSCLC = system: HOP-62 NSCLC
SN12C renal = system: SN12C renal
OVCAR-4 ovarian = system: OVCAR-4 ovarian
OVCAR-3 ovarian = system: OVCAR-3 ovarian
UO-31 renal = system: UO-31 renal
DU-145 prostate = system: DU-145 prostate
SF-268 CNS = system: SF-268 CNS
SK-OV-3 ovarian = system: SK-OV-3 ovarian
PC-3 prostate = system: PC-3 prostate
NCI-H226 lung = system: NCI-H226 lung
NCI/ADR-RES ovarian = system: NCI/ADR-RES ovarian
OVCAR-5 ovarian = system: OVCAR-5 ovarian
UACC-62 melanoma = system: UACC-62 melanoma
NCI-H522 lung = system: NCI-H522 lung
OVCAR-8 ovarian = system: OVCAR-8 ovarian
HCT-116 colon = system: HCT-116 colon
U251 CNS = system: U251 CNS
EKVX NSCLC = system: EKVX NSCLC
SK-MEL-28 melanoma = system: SK-MEL-28 melanoma

C#Cc1nc(C2=C(C)C(OC(C)=O)/C(=N/OC(C)=O)C2)cs1 (stereo not given)
GI50 (HOP-92 NSCLC): 1.73 µM | TGI (HOP-92 NSCLC): 3.24 µM | GI50 (KM12 colon): 47.4 µM | TGI (KM12 colon): > 100 µM | GI50 (TK-10 renal): 28.3 µM | TGI (TK-10 renal): 56.9 µM | GI50 (HT29 colon): 2.27 µM | TGI (HT29 colon): 6.67 µM | GI50 (SK-MEL-2 melanoma): 27.6 µM | TGI (SK-MEL-2 melanoma): > 69.7 µM | GI50 (HL-60(TB) leukemia): 0.587 µM | TGI (HL-60(TB) leukemia): 1.32 µM | GI50 (HS 578T breast): 8.7 µM | TGI (HS 578T breast): > 25.9 µM | GI50 (SK-MEL-5 melanoma): 19.5 µM | TGI (SK-MEL-5 melanoma): 56.1 µM | GI50 (BT-549 breast): 5.65 µM | TGI (BT-549 breast): 13 µM | GI50 (K-562 leukemia): 11.8 µM | TGI (K-562 leukemia): 53.5 µM | GI50 (SF-539 CNS): 0.687 µM | TGI (SF-539 CNS): 1.87 µM | GI50 (UACC-257 melanoma): 17.6 µM | TGI (UACC-257 melanoma): 62.8 µM | GI50 (RXF 393 renal): 2.62 µM | TGI (RXF 393 renal): 6.03 µM | GI50 (HCT-15 colon): 6.21 µM | TGI (HCT-15 colon): 23.8 µM | GI50 (NCI-H460 lung): > 28.5 µM | TGI (NCI-H460 lung): > 100 µM | GI50 (SF-295 CNS): 1.84 µM | TGI (SF-295 CNS): 3.67 µM | GI50 (NCI-H23 lung): 1.26 µM | TGI (NCI-H23 lung): 4.86 µM | GI50 (MDA-MB-231 breast): 4.62 µM | TGI (MDA-MB-231 breast): > 20.6 µM | GI50 (T-47D breast): 7.49 µM | TGI (T-47D breast): 30.4 µM | GI50 (SNB-19 CNS): > 59.5 µM | TGI (SNB-19 CNS): > 100 µM | TGI (SNB-75 CNS): > 24.2 µM | GI50 (786-0 renal): 1.83 µM | TGI (786-0 renal): 3.33 µM | GI50 (CCRF-CEM leukemia): 0.188 µM | TGI (CCRF-CEM leukemia): 0.478 µM | GI50 (IGROV1 ovarian): 0.745 µM | TGI (IGROV1 ovarian): 2.09 µM | GI50 (CAKI-1 renal): 4.66 µM | TGI (CAKI-1 renal): 11.7 µM | GI50 (MCF7 breast): 6.75 µM | TGI (MCF7 breast): > 76.6 µM | GI50 (A498 renal): 27.1 µM | TGI (A498 renal): 50.4 µM | GI50 (M14 melanoma): 21.3 µM | TGI (M14 melanoma): > 80 µM | GI50 (ACHN renal): 0.831 µM | TGI (ACHN renal): 7.17 µM | GI50 (LOX IMVI melanoma): 0.0198 µM | TGI (LOX IMVI melanoma): 0.0453 µM | GI50 (MDA-MB-435): 34.5 µM | TGI (MDA-MB-435): > 77.3 µM | GI50 (COLO 205 colon): 20.1 µM | TGI (COLO 205 colon): > 55.7 µM | GI50 (HCC-2998 colon): 23.2 µM | TGI (HCC-2998 colon): > 60.9 µM | GI50 (A549 NSCLC): 5.39 µM | TGI (A549 NSCLC): > 100 µM | GI50 (SR leukemia): 0.228 µM | TGI (SR leukemia): 0.649 µM | GI50 (MALME-3M melanoma): 1.81 µM | TGI (MALME-3M melanoma): 4.86 µM | GI50 (MOLT-4 leukemia): 1.85 µM | TGI (MOLT-4 leukemia): 4.69 µM | GI50 (SW-620 colon): 13.3 µM | TGI (SW-620 colon): 30.4 µM | GI50 (RPMI-8226 leukemia): 0.312 µM | TGI (RPMI-8226 leukemia): 1.17 µM | GI50 (HOP-62 NSCLC): 9.24 µM | TGI (HOP-62 NSCLC): > 23.6 µM | GI50 (SN12C renal): 10.1 µM | TGI (SN12C renal): 25.4 µM | GI50 (OVCAR-4 ovarian): 6.65 µM | TGI (OVCAR-4 ovarian): 22.1 µM | GI50 (OVCAR-3 ovarian): 2.7 µM | TGI (OVCAR-3 ovarian): 7.6 µM | GI50 (UO-31 renal): 0.164 µM | TGI (UO-31 renal): 0.299 µM | GI50 (DU-145 prostate): 11.5 µM | TGI (DU-145 prostate): > 70.3 µM | GI50 (SF-268 CNS): 9.78 µM | TGI (SF-268 CNS): 45.7 µM | GI50 (SK-OV-3 ovarian): 6.16 µM | TGI (SK-OV-3 ovarian): 20.6 µM | GI50 (PC-3 prostate): 4.66 µM | TGI (PC-3 prostate): > 42.4 µM | GI50 (NCI-H226 lung): > 100 µM | TGI (NCI-H226 lung): > 100 µM | GI50 (NCI/ADR-RES ovarian): 4.98 µM | TGI (NCI/ADR-RES ovarian): > 21.3 µM | GI50 (OVCAR-5 ovarian): 7.36 µM | TGI (OVCAR-5 ovarian): > 41.9 µM | GI50 (UACC-62 melanoma): 13.7 µM | TGI (UACC-62 melanoma): 29.4 µM | GI50 (NCI-H522 lung): 0.429 µM | TGI (NCI-H522 lung): 0.937 µM | GI50 (OVCAR-8 ovarian): 9.99 µM | TGI (OVCAR-8 ovarian): 41.6 µM | GI50 (HCT-116 colon): 13.5 µM | TGI (HCT-116 colon): 30.4 µM | GI50 (U251 CNS): 4.58 µM | TGI (U251 CNS): > 26.9 µM | GI50 (EKVX NSCLC): 12 µM | TGI (EKVX NSCLC): > 61.4 µM | GI50 (SK-MEL-28 melanoma): 17.1 µM | TGI (SK-MEL-28 melanoma): 39 µM
